In patent publication US7192746B2, “α-Isomaltosyltransferase, process for producing the same and use thereof” (Kabushiki Kaisha Hayashibara Seibutsu Kagaku Kenkyujo, priority 2000, dated 2007):

Legend:
Format in all cases: biochemical
[1] = test system: α-isomaltosyl-transferring enzyme from Bacillus globisporus N75; assay: Specificity to transferring acceptor; set-up: key: −: no saccharide transferred product was formed; ±: a saccharide-transferred product formed in an amount of less than one percent to the total sugars; +: a saccharide-transferred product was formed in an amount of over one percent but below 10% to the total sugars; ++: a saccharide-transferred product was formed in an amount of over 10% to the total sugars; conditions: panose as saccharide donor, 10 units/g substrate, 3.2% (w/v), 30° C., pH 6.0, 24 hours
Summary of the method: (§1)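 Panose donor + test saccharide (equimolar-equal conc.), 3.2% (w/v) total, 10 units/g substrate enzyme; 30° C., pH 6.0, 24 h. GLC (FID) for mono/disaccharide acceptors, HPLC (RI) for tri- and larger. Scored +/−.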

[2] = test system: α-isomaltosyl-transferring enzyme from Arthrobacter ramosus S1; assay: Specificity to transferring acceptor; set-up: key: −: no saccharide transferred product was formed; ±: a saccharide-transferred product formed in an amount of less than one percent to the total sugars; +: a saccharide-transferred product was formed in an amount of over one percent but below 10% to the total sugars; ++: a saccharide-transferred product was formed in an amount of over 10% to the total sugars; conditions: panose as saccharide donor, 10 units/g substrate, 3.2% (w/v), 30° C., pH 6.0, 24 hours
Summary of the method: as §1

[3] = test system: α-isomaltosyl-transferring enzyme from Bacillus globisporus C11; assay: Specificity to transferring acceptor; set-up: key: −: no saccharide transferred product was formed; ±: a saccharide-transferred product formed in an amount of less than one percent to the total sugars; +: a saccharide-transferred product was formed in an amount of over one percent but below 10% to the total sugars; ++: a saccharide-transferred product was formed in an amount of over 10% to the total sugars; conditions: panose as saccharide donor, 10 units/g substrate, 3.2% (w/v), 30° C., pH 6.0, 24 hours
Summary of the method: as §1

[4] = test system: α-isomaltosyl-transferring enzyme from Arthrobacter globiformis A19; assay: Specificity to transferring acceptor; set-up: key: −: no saccharide transferred product was formed; ±: a saccharide-transferred product formed in an amount of less than one percent to the total sugars; +: a saccharide-transferred product was formed in an amount of over one percent but below 10% to the total sugars; ++: a saccharide-transferred product was formed in an amount of over 10% to the total sugars; conditions: partially purified enzyme, panose as saccharide donor, 10 units/g substrate, 3.2% (w/v), 30° C., pH 6.0, 24 hours
Summary of the method: as §1

[5] = test system: α-isomaltosyl-transferring enzyme from Bacillus globisporus C9; assay: Specificity to transferring acceptor; set-up: key: −: no saccharide transferred product was formed; ±: a saccharide-transferred product formed in an amount of less than one percent to the total sugars; +: a saccharide-transferred product was formed in an amount of over one percent but below 10% to the total sugars; ++: a saccharide-transferred product was formed in an amount of over 10% to the total sugars; conditions: panose as saccharide donor, 10 units/g substrate, 3.2% (w/v), 30° C., pH 6.0, 24 hours
Summary of the method: as §1

[6] = test system: α-isomaltosyl-transferring enzyme from Bacillus globisporus N75; assay: Action on saccharides (substrates, TLC); set-up: key: −: there was found no substrate change before and after the enzymatic reaction; +: there were found both the reduction of substrate and the formation of cyclotetrasaccharide after the enzymatic reaction; conditions: 2 units/g substrate, 2% (w/v) substrate, 30° C., pH 6.0, 24 hours
Summary of the method: (§2)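 Action was judged by comparing TLC profiles of each mixture before and after a 24-hour reaction at 30° C. and pH 6.0. Each saccharide (2% w/v) received 2 units/g substrate of purified enzyme; plates were developed in n-butanol, pyridine and water (6:4:1).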

[7] = test system: α-isomaltosyl-transferring enzyme from Arthrobacter ramosus S1; assay: Action on saccharides (substrates, TLC); set-up: key: −: there was found no substrate change before and after the enzymatic reaction; +: there were found both the reduction of substrate and the formation of cyclotetrasaccharide after the enzymatic reaction; conditions: 2 units/g substrate, 2% (w/v) substrate, 30° C., pH 6.0, 24 hours
Summary of the method: as §2

[8] = test system: α-isomaltosyl-transferring enzyme from Bacillus globisporus C11; assay: Action on saccharides (substrates, TLC); set-up: key: −: there was found no substrate change before and after the enzymatic reaction; +: there were found both the reduction of substrate and the formation of cyclotetrasaccharide after the enzymatic reaction; conditions: 2 units/g substrate, 2% (w/v) substrate, 30° C., pH 6.0, 24 hours
Summary of the method: as §2

[9] = test system: α-isomaltosyl-transferring enzyme from Arthrobacter globiformis A19; assay: Action on saccharides (substrates, TLC); set-up: key: −: there was found no substrate change before and after the enzymatic reaction; +: there were found both the reduction of substrate and the formation of cyclotetrasaccharide after the enzymatic reaction; conditions: partially purified enzyme, 2 units/g substrate, 2% (w/v) substrate, 30° C., pH 6.0, 24 hours
Summary of the method: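 Purified enzyme (partially purified for A. globiformis A19) at 2 units/g substrate acted on each saccharide at 2% (w/v), pH 6.0, 30° C., 24 h. Pre- and post-reaction mixtures ran on silica gel TLC in n-butanol/pyridine/water (6:4:1). Total sugars were stained by sulfuric acid-methanol and reducing sugars by diphenylamine-aniline.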

[10] = test system: α-isomaltosyl-transferring enzyme from Bacillus globisporus C9; assay: Action on saccharides (substrates, TLC); set-up: key: −: there was found no substrate change before and after the enzymatic reaction; +: there were found both the reduction of substrate and the formation of cyclotetrasaccharide after the enzymatic reaction; conditions: 2 units/g substrate, 2% (w/v) substrate, 30° C., pH 6.0, 24 hours
Summary of the method: as §2

Row | Compound | Product of transferring reaction, Enzyme of Strain N75 [1] | Product of transferring reaction, Enzyme of Strain S1 [2] | Product of transferring reaction, Enzyme of Strain C11 [3] | Product of transferring reaction, Enzyme of Stain A19 [4] | Product of transferring reaction, Enzyme of Strain C9 [5] | Enzymatic action for forming cyclotetrasaccharide, Enzyme of Strain N75 [6] | Enzymatic action for forming cyclotetrasaccharide, Enzyme of Strain S1 [7] | Enzymatic action for forming cyclotetrasaccharide, Enzyme of Strain C11 [8] | Enzymatic action for forming cyclotetrasaccharide, Enzyme of Strain A19 [9] | Enzymatic action for forming cyclotetrasaccharide, Enzyme of Strain C9 [10]
1 | OC[C@H]1O[C@@H]2O[C@H]3[C@H](O)[C@@H](O)[C@@H](O[C@H]4[C@H](O)[C@@H](O)[C@@H](O[C@H]5[C@H](O)[C@@H](O)[C@@H](O[C@H]6[C@H](O)[C@@H](O)[C@@H](O[C@H]7[C@H](O)[C@@H](O)[C@@H](O[C@H]8[C@H](O)[C@@H](O)[C@@H](O[C@H]1[C@H](O)[C@H]2O)O[C@@H]8CO)O[C@@H]7CO)O[C@@H]6CO)O[C@@H]5CO)O[C@@H]4CO)O[C@@H]3CO [β-Cyclodextrin, β-cyclodextrin] | − | − | − | − | − | − | − | − | − | −
2 | maltopentaose | ± (a saccharide-transferred product formed in an amount of less than one percent to the total sugars) | ± (a saccharide-transferred product formed in an amount of less than one percent to the total sugars) | + (a saccharide-transferred product was formed in an amount of over one percent but below 10% to the total sugars) | + (a saccharide-transferred product was formed in an amount of over one percent but below 10% to the total sugars) | + (a saccharide-transferred product was formed in an amount of over one percent but below 10% to the total sugars) | − | − | − | − | −
3 | OC[C@H]1O[C@@H](O[C@H]2O[C@H](CO)[C@@H](O)[C@H](O)[C@H]2O)[C@H](O)[C@@H](O)[C@@H]1O [α,β-trehalose] | ++ (a saccharide-transferred product was formed in an amount of over 10% to the total sugars) | ++ (a saccharide-transferred product was formed in an amount of over 10% to the total sugars) | ++ (a saccharide-transferred product was formed in an amount of over 10% to the total sugars) | ++ (a saccharide-transferred product was formed in an amount of over 10% to the total sugars) | ++ (a saccharide-transferred product was formed in an amount of over 10% to the total sugars) | − | − | − | − | −
4 | OC[C@H]1O[C@@H](O[C@H]2[C@H](O)[C@@H](O)C(O)O[C@@H]2CO)[C@H](O)[C@@H](O)[C@H]1O (stereo partly drawn) [Lactose, lactose] | + (a saccharide-transferred product was formed in an amount of over one percent but below 10% to the total sugars) | + (a saccharide-transferred product was formed in an amount of over one percent but below 10% to the total sugars) | + (a saccharide-transferred product was formed in an amount of over one percent but below 10% to the total sugars) | + (a saccharide-transferred product was formed in an amount of over one percent but below 10% to the total sugars) | + (a saccharide-transferred product was formed in an amount of over one percent but below 10% to the total sugars) | − | − | − | − | −
5 | OC[C@H]1O[C@@H]2O[C@H]3[C@H](O)[C@@H](O)[C@@H](O[C@H]4[C@H](O)[C@@H](O)[C@@H](O[C@H]5[C@H](O)[C@@H](O)[C@@H](O[C@H]6[C@H](O)[C@@H](O)[C@@H](O[C@H]7[C@H](O)[C@@H](O)[C@@H](O[C@H]1[C@H](O)[C@H]2O)O[C@@H]7CO)O[C@@H]6CO)O[C@@H]5CO)O[C@@H]4CO)O[C@@H]3CO [α-Cyclodextrin, α-cyclodextrin] | − | − | − | − | − | − | − | − | − | −
6 | OC[C@H]1O[C@H](OC[C@H]2O[C@H](OC[C@H]3OC(O)[C@H](O)[C@@H](O)[C@@H]3O)[C@H](O)[C@@H](O)[C@@H]2O)[C@H](O)[C@@H](O)[C@@H]1O (stereo partly drawn) [Isomaltotriose, isomaltotriose] | + (a saccharide-transferred product was formed in an amount of over one percent but below 10% to the total sugars) | ++ (a saccharide-transferred product was formed in an amount of over 10% to the total sugars) | + (a saccharide-transferred product was formed in an amount of over one percent but below 10% to the total sugars) | + (a saccharide-transferred product was formed in an amount of over one percent but below 10% to the total sugars) | + (a saccharide-transferred product was formed in an amount of over one percent but below 10% to the total sugars) | − | − | − | − | −
